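All cell lines were grown in 96-well plates and treated with compound for 48 hours. TGI is the concentration that stops growth completely.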
What was measured:
Test in all cases: DTP human tumour cell line panel, 48 h
LOX IMVI melanoma = tested on: LOX IMVI melanoma
HOP-92 NSCLC = tested on: HOP-92 NSCLC
K-562 leukemia = tested on: K-562 leukemia
OVCAR-4 ovarian = tested on: OVCAR-4 ovarian
NCI-H460 lung = tested on: NCI-H460 lung
MOLT-4 leukemia = tested on: MOLT-4 leukemia
ACHN renal = tested on: ACHN renal
HS 578T breast = tested on: HS 578T breast
OVCAR-8 ovarian = tested on: OVCAR-8 ovarian
HT29 colon = tested on: HT29 colon
SF-268 CNS = tested on: SF-268 CNS
RPMI-8226 leukemia = tested on: RPMI-8226 leukemia
A498 renal = tested on: A498 renal
U251 CNS = tested on: U251 CNS
MDA-MB-231 breast = tested on: MDA-MB-231 breast
BT-549 breast = tested on: BT-549 breast
SN12C renal = tested on: SN12C renal
MALME-3M melanoma = tested on: MALME-3M melanoma
CCRF-CEM leukemia = tested on: CCRF-CEM leukemia
HCT-15 colon = tested on: HCT-15 colon
RXF 393 renal = tested on: RXF 393 renal
OVCAR-5 ovarian = tested on: OVCAR-5 ovarian
786-0 renal = tested on: 786-0 renal
NCI-H522 lung = tested on: NCI-H522 lung
UO-31 renal = tested on: UO-31 renal
MDA-N = tested on: MDA-N
SK-MEL-2 melanoma = tested on: SK-MEL-2 melanoma
EKVX NSCLC = tested on: EKVX NSCLC
SR leukemia = tested on: SR leukemia
DU-145 prostate = tested on: DU-145 prostate
MCF7 breast = tested on: MCF7 breast
NCI-H23 lung = tested on: NCI-H23 lung
SK-MEL-28 melanoma = tested on: SK-MEL-28 melanoma
UACC-257 melanoma = tested on: UACC-257 melanoma
SNB-19 CNS = tested on: SNB-19 CNS
SK-OV-3 ovarian = tested on: SK-OV-3 ovarian
T-47D breast = tested on: T-47D breast
HCC-2998 colon = tested on: HCC-2998 colon
UACC-62 melanoma = tested on: UACC-62 melanoma
HL-60(TB) leukemia = tested on: HL-60(TB) leukemia
SF-539 CNS = tested on: SF-539 CNS
CAKI-1 renal = tested on: CAKI-1 renal
NCI-H226 lung = tested on: NCI-H226 lung
A549 NSCLC = tested on: A549 NSCLC
SF-295 CNS = tested on: SF-295 CNS
OVCAR-3 ovarian = tested on: OVCAR-3 ovarian
KM12 colon = tested on: KM12 colon
M14 melanoma = tested on: M14 melanoma
SK-MEL-5 melanoma = tested on: SK-MEL-5 melanoma
TK-10 renal = tested on: TK-10 renal
NCI/ADR-RES ovarian = tested on: NCI/ADR-RES ovarian
MDA-MB-435 = tested on: MDA-MB-435
COLO 205 colon = tested on: COLO 205 colon
HCT-116 colon = tested on: HCT-116 colon
SW-620 colon = tested on: SW-620 colon
HOP-62 NSCLC = tested on: HOP-62 NSCLC
IGROV1 ovarian = tested on: IGROV1 ovarian
SNB-75 CNS = tested on: SNB-75 CNS

CC(C)(C)OC(=O)Nc1nnc(S(N)(=O)=O)s1 showed a TGI (LOX IMVI melanoma) greater than 100 µM, a TGI (HOP-92 NSCLC) greater than 100 µM and a TGI (K-562 leukemia) greater than 100 µM. The TGI (OVCAR-4 ovarian) was greater than 100 µM, the TGI (NCI-H460 lung) was greater than 100 µM and the TGI (MOLT-4 leukemia) was greater than 100 µM. For the same compound, the TGI (ACHN renal) was greater than 100 µM, the TGI (HS 578T breast) was greater than 100 µM and the TGI (OVCAR-8 ovarian) was greater than 100 µM. The TGI (HT29 colon) was greater than 100 µM, the TGI (SF-268 CNS) was greater than 100 µM and the TGI (RPMI-8226 leukemia) was greater than 100 µM. The TGI (A498 renal) was greater than 100 µM, the TGI (U251 CNS) was greater than 100 µM and the TGI (MDA-MB-231 breast) was greater than 100 µM. For the same compound, the TGI (BT-549 breast) was greater than 100 µM, the TGI (SN12C renal) was greater than 100 µM and the TGI (MALME-3M melanoma) was greater than 100 µM. It also gave a TGI (CCRF-CEM leukemia) greater than 100 µM, a TGI (HCT-15 colon) greater than 100 µM and a TGI (RXF 393 renal) greater than 100 µM. For the same compound, the TGI (OVCAR-5 ovarian) was greater than 100 µM, the TGI (786-0 renal) was greater than 100 µM and the TGI (NCI-H522 lung) was greater than 100 µM. For the same compound, the TGI (UO-31 renal) was greater than 100 µM, the TGI (MDA-N) was greater than 100 µM and the TGI (SK-MEL-2 melanoma) was greater than 100 µM. The TGI (EKVX NSCLC) was greater than 100 µM, the TGI (SR leukemia) was greater than 100 µM and the TGI (DU-145 prostate) was greater than 100 µM. It also gave a TGI (MCF7 breast) greater than 100 µM, a TGI (NCI-H23 lung) greater than 100 µM and a TGI (SK-MEL-28 melanoma) greater than 100 µM. For the same compound, the TGI (UACC-257 melanoma) was greater than 100 µM, the TGI (SNB-19 CNS) was greater than 100 µM and the TGI (SK-OV-3 ovarian) was greater than 100 µM. It also gave a TGI (T-47D breast) greater than 100 µM, a TGI (HCC-2998 colon) greater than 100 µM and a TGI (UACC-62 melanoma) greater than 100 µM. The TGI (HL-60(TB) leukemia) was greater than 100 µM, the TGI (SF-539 CNS) was greater than 100 µM and the TGI (CAKI-1 renal) was greater than 100 µM. For the same compound, the TGI (NCI-H226 lung) was greater than 100 µM, the TGI (A549 NSCLC) was greater than 100 µM and the TGI (SF-295 CNS) was greater than 100 µM. For the same compound, the TGI (OVCAR-3 ovarian) was greater than 100 µM, the TGI (KM12 colon) was greater than 100 µM and the TGI (M14 melanoma) was greater than 100 µM. For the same compound, the TGI (SK-MEL-5 melanoma) was greater than 100 µM, the TGI (TK-10 renal) was greater than 100 µM and the TGI (NCI/ADR-RES ovarian) was greater than 100 µM. The TGI (MDA-MB-435) was greater than 100 µM, the TGI (COLO 205 colon) was greater than 100 µM and the TGI (HCT-116 colon) was greater than 100 µM. The TGI (SW-620 colon) was greater than 100 µM and the TGI (HOP-62 NSCLC) was greater than 100 µM.

Cc1nn2c(C(=O)N/N=C/c3ccccc3O)c(C)nc2s1 gave a TGI (LOX IMVI melanoma) greater than 100 µM, a TGI (HOP-92 NSCLC) greater than 100 µM and a TGI (K-562 leukemia) greater than 100 µM. For the same compound, the TGI (OVCAR-4 ovarian) was greater than 100 µM, the TGI (NCI-H460 lung) was greater than 100 µM and the TGI (MOLT-4 leukemia) was greater than 100 µM. For the same compound, the TGI (ACHN renal) was greater than 100 µM, the TGI (HS 578T breast) was greater than 100 µM and the TGI (OVCAR-8 ovarian) was greater than 100 µM. The TGI (HT29 colon) was greater than 100 µM, the TGI (SF-268 CNS) was greater than 100 µM and the TGI (A498 renal) was greater than 100 µM. For the same compound, the TGI (U251 CNS) was greater than 100 µM, the TGI (MDA-MB-231 breast) was greater than 100 µM and the TGI (BT-549 breast) was greater than 100 µM. The TGI (SN12C renal) was greater than 100 µM, the TGI (IGROV1 ovarian) was greater than 100 µM and the TGI (MALME-3M melanoma) was greater than 100 µM. The TGI (CCRF-CEM leukemia) was greater than 100 µM, the TGI (HCT-15 colon) was greater than 100 µM and the TGI (RXF 393 renal) was greater than 100 µM. It also gave a TGI (OVCAR-5 ovarian) greater than 100 µM, a TGI (786-0 renal) greater than 100 µM and a TGI (NCI-H522 lung) greater than 100 µM. It also gave a TGI (UO-31 renal) greater than 100 µM, a TGI (MDA-N) greater than 100 µM and a TGI (EKVX NSCLC) greater than 100 µM. For the same compound, the TGI (DU-145 prostate) was greater than 100 µM, the TGI (MCF7 breast) was greater than 100 µM and the TGI (NCI-H23 lung) was greater than 100 µM. It also gave a TGI (SK-MEL-28 melanoma) greater than 100 µM, a TGI (SNB-75 CNS) greater than 100 µM and a TGI (UACC-257 melanoma) greater than 100 µM. The TGI (SNB-19 CNS) was greater than 100 µM, the TGI (T-47D breast) was greater than 100 µM and the TGI (HCC-2998 colon) was greater than 100 µM. It also gave a TGI (UACC-62 melanoma) greater than 100 µM, a TGI (HL-60(TB) leukemia) greater than 100 µM and a TGI (SF-539 CNS) greater than 100 µM. For the same compound, the TGI (CAKI-1 renal) was greater than 100 µM, the TGI (NCI-H226 lung) was greater than 100 µM and the TGI (A549 NSCLC) was greater than 100 µM. It also gave a TGI (SF-295 CNS) greater than 100 µM, a TGI (OVCAR-3 ovarian) of 90.6 µM and a TGI (KM12 colon) greater than 100 µM. For the same compound, the TGI (M14 melanoma) was greater than 100 µM, the TGI (SK-MEL-5 melanoma) was greater than 100 µM and the TGI (TK-10 renal) was greater than 100 µM. For the same compound, the TGI (NCI/ADR-RES ovarian) was greater than 100 µM, the TGI (MDA-MB-435) was greater than 100 µM and the TGI (COLO 205 colon) was greater than 100 µM. For the same compound, the TGI (HCT-116 colon) was greater than 100 µM, the TGI (SW-620 colon) was greater than 100 µM and the TGI (HOP-62 NSCLC) was greater than 100 µM.

With COc1cc(-c2cc(=O)c3c(OC)c(OC)c(OC)c(OC)c3o2)cc(OC)c1OC the TGI (LOX IMVI melanoma) was 83.1 µM, the TGI (HOP-92 NSCLC) was 86.6 µM and the TGI (K-562 leukemia) was greater than 100 µM. It also gave a TGI (OVCAR-4 ovarian) greater than 100 µM, a TGI (NCI-H460 lung) greater than 100 µM and a TGI (MOLT-4 leukemia) greater than 100 µM. For the same compound, the TGI (ACHN renal) was greater than 100 µM, the TGI (HS 578T breast) was greater than 100 µM and the TGI (OVCAR-8 ovarian) was greater than 100 µM. The TGI (HT29 colon) was greater than 100 µM, the TGI (SF-268 CNS) was greater than 100 µM and the TGI (RPMI-8226 leukemia) was greater than 100 µM. For the same compound, the TGI (A498 renal) was 85.2 µM, the TGI (U251 CNS) was greater than 100 µM and the TGI (MDA-MB-231 breast) was greater than 100 µM. For the same compound, the TGI (BT-549 breast) was greater than 100 µM, the TGI (SN12C renal) was greater than 100 µM and the TGI (IGROV1 ovarian) was greater than 100 µM. It also gave a TGI (MALME-3M melanoma) greater than 100 µM, a TGI (CCRF-CEM leukemia) greater than 100 µM and a TGI (HCT-15 colon) greater than 100 µM. It also gave a TGI (RXF 393 renal) greater than 100 µM, a TGI (OVCAR-5 ovarian) greater than 100 µM and a TGI (786-0 renal) greater than 100 µM. The TGI (NCI-H522 lung) was 51.1 µM, the TGI (UO-31 renal) was greater than 100 µM and the TGI (MDA-N) was greater than 100 µM. For the same compound, the TGI (SK-MEL-2 melanoma) was greater than 100 µM, the TGI (EKVX NSCLC) was greater than 100 µM and the TGI (SR leukemia) was greater than 100 µM. For the same compound, the TGI (DU-145 prostate) was greater than 100 µM, the TGI (MCF7 breast) was greater than 100 µM and the TGI (NCI-H23 lung) was greater than 100 µM. For the same compound, the TGI (SK-MEL-28 melanoma) was greater than 100 µM, the TGI (SNB-75 CNS) was greater than 100 µM and the TGI (UACC-257 melanoma) was greater than 100 µM. For the same compound, the TGI (SNB-19 CNS) was greater than 100 µM, the TGI (SK-OV-3 ovarian) was greater than 100 µM and the TGI (T-47D breast) was 70.5 µM. It also gave a TGI (HCC-2998 colon) greater than 100 µM, a TGI (UACC-62 melanoma) of 89.5 µM and a TGI (HL-60(TB) leukemia) of 67.5 µM. The TGI (SF-539 CNS) was greater than 100 µM, the TGI (CAKI-1 renal) was greater than 100 µM and the TGI (NCI-H226 lung) was greater than 100 µM. For the same compound, the TGI (A549 NSCLC) was greater than 100 µM, the TGI (SF-295 CNS) was greater than 100 µM and the TGI (OVCAR-3 ovarian) was greater than 100 µM. For the same compound, the TGI (M14 melanoma) was greater than 100 µM, the TGI (SK-MEL-5 melanoma) was 39.5 µM and the TGI (TK-10 renal) was greater than 100 µM. For the same compound, the TGI (NCI/ADR-RES ovarian) was 84 µM, the TGI (MDA-MB-435) was greater than 100 µM and the TGI (COLO 205 colon) was 40 µM. The TGI (HCT-116 colon) was greater than 100 µM, the TGI (SW-620 colon) was greater than 100 µM and the TGI (HOP-62 NSCLC) was greater than 100 µM.

From PubChem BioAssay (NCI)
